Test results reported in ChEMBL document CHEMBL3763059, “Lanostane-type triterpenes from the fungal endophyte Scleroderma UFSMSc1 (Persoon) Fries” (2016).
Converted amounts (≈) assume the structure as drawn.

What was measured:
Format in all cases: functional
Candida tropicalis = assay: Antifungal activity against Candida tropicalis ATCC 18803 after 48 hrs by micro dilution method; conditions: for MIC: Candida tropicalis, ATCC 18803, 48 h
Pichia kudriavzevii = assay: Antifungal activity against Candida krusei ATCC 6258 after 48 hrs by micro dilution method; conditions: for MIC: Pichia kudriavzevii, ATCC 6258, 48 h
Candida parapsilosis = assay: Antifungal activity against Candida parapsilosis ATCC 22018 after 48 hrs by micro dilution method; conditions: for MIC: Lodderomyces parapsilosis, ATCC 22018, 48 h
Candida albicans = assay: Antifungal activity against Candida albicans ATCC 10231 after 48 hrs by microdilution method; conditions: for MIC: Candida albicans, ATCC 10231, 48 h

MIC (Candida tropicalis) [µg/mL]	MIC (Pichia kudriavzevii) [µg/mL]	MIC (Candida parapsilosis) [µg/mL]	MIC (Candida albicans) [µg/mL]	SMILES	MLC (Candida tropicalis) [µg/mL]	MLC (Pichia kudriavzevii) [µg/mL]	MLC (Candida parapsilosis) [µg/mL]	MLC (Candida albicans) [µg/mL]
50 (≈ 118 µM)	12.5 (≈ 29.4 µM)	25 (≈ 58.9 µM)	50 (≈ 118 µM)	C=C(C)/C=C/C[C@@H](C)[C@H]1CC[C@@]2(C)C3=C(CC[C@]12C)[C@@]1(C)CC[C@H](O)C(C)(C)[C@@H]1CC3	100 (≈ 235 µM)	100 (≈ 235 µM)	50 (≈ 118 µM)	>100
50 (≈ 113 µM)	12.5 (≈ 28.2 µM)	50 (≈ 113 µM)	50 (≈ 113 µM)	C[C@H](C/C=C/C(C)(C)O)[C@H]1CC[C@@]2(C)C3=C(CC[C@]12C)[C@@]1(C)CC[C@H](O)C(C)(C)[C@@H]1CC3 (relative stereo)	>100	100 (≈ 226 µM)	100 (≈ 226 µM)	>100
25 (≈ 54.7 µM)	6.25 (≈ 13.7 µM)	12.5 (≈ 27.4 µM)	25 (≈ 54.7 µM)	COC(C)(C)/C=C/C[C@@H](C)[C@H]1CC[C@@]2(C)C3=C(CC[C@]12C)[C@@]1(C)CC[C@H](O)C(C)(C)[C@@H]1CC3 (relative stereo)	25 (≈ 54.7 µM)	12.5 (≈ 27.4 µM)	25 (≈ 54.7 µM)	25 (≈ 54.7 µM)
